{
  "source": "PubChem BioAssay AID504657",
  "about": "(Sanford-Burnham Center for Chemical Genomics, 2011)",
  "note": "Calls of active or inactive are those of the source. The rule behind the calls is not given here.",
  "data": [
    {"test_system": "S. cerevisiae tim10-1 mutant, luminescence counterscreen", "assay": "tim10-1 yeast luminescent signal inhibition – luminescence, S. cerevisiae, uHTS hits, counter-screen for tim23-1 inhibitor project, dose response (AID 504657)", "values": [
      {"smiles": "Cc1nc2scc(C)n2c(=O)c1S(=O)(=O)Nc1ccc(OC(F)(F)F)cc1", "IC50": "> 100 µM (inactive)"},
      {"smiles": "O=c1c(O)c(-c2ccccc2)oc2cc(O)cc(O)c12", "IC50": "> 100 µM (inactive)"},
      {"smiles": "C=C1CCc2c([nH]c3ccc(OCC(C)C)cc23)C1=O", "IC50": "> 100 µM (inactive)"},
      {"smiles": "CN1CCc2nc3sc(C(=O)C45CC6CC(CC(C6)C4)C5)c(N)c3cc2C1", "IC50": "> 100 µM (inactive)"},
      {"smiles": "Cc1ccc2nc(N3C(=O)CNC3=S)sc2c1", "IC50": "> 100 µM (inactive)"},
      {"smiles": "CCOC(=O)c1ccc(NC(=O)CSc2nc(=O)n3cccc(C)c3n2)cc1", "IC50": "> 100 µM (inactive)"},
      {"smiles": "CC(C)(C)c1csc(NC(=O)c2ccc(Cl)s2)n1", "IC50": "> 100 µM (inactive)"},
      {"smiles": "Cc1ccc(-c2nn(-c3ccccc3)cc2NC(=O)CCl)cc1", "IC50": "> 100 µM (inactive)"},
      {"smiles": "CO/C(N)=C(\\C#N)N=Cc1ccccc1Cl", "IC50": "> 100 µM (inactive)"},
      {"smiles": "CN(C)/C=C1/C=C(c2ccccc2)OC1=O", "IC50": "94.1 µM"},
      {"smiles": "O=C(Nc1cc(-c2ccccc2)[nH]n1)c1ccccc1", "IC50": "> 100 µM (inactive)"},
      {"smiles": "CCn1c(N2CCN(S(=O)(=O)c3ccc(OC)cc3)CC2)nc2ccccc21", "IC50": "> 100 µM (inactive)"},
      {"smiles": "O=c1cc(C(Cl)(Cl)Cl)oc2c1ccc1ccccc12", "IC50": "> 100 µM (inactive)"},
      {"smiles": "COc1ccc2c(c1)sc1nc(-c3ccccc3)cn12", "IC50": "> 100 µM (inactive)"},
      {"smiles": "Cc1nc2scc(C)n2c(=O)c1S(=O)(=O)Nc1ccc(N2CCOCC2)cc1", "IC50": "> 100 µM (inactive)"},
      {"smiles": "N#Cc1c(-c2ccccc2)cc(-c2ccc(O)cc2)nc1N", "IC50": "> 100 µM (inactive)"},
      {"smiles": "N#C/C(=C\\c1ccc(Cl)cc1)C(=O)Nc1cccnc1", "IC50": "> 100 µM (inactive)"},
      {"smiles": "Cc1ccc2[nH]cc(C(=O)CCl)c2c1", "IC50": "> 100 µM (inactive)"},
      {"smiles": "O=C(N/N=C/C=C\\c1ccco1)c1cccs1", "IC50": "> 100 µM (inactive)"},
      {"smiles": "O=c1oc(Cl)c(Cl)c2ccccc12", "IC50": "> 100 µM (inactive)"},
      {"smiles": "O=C(CSc1cccc[n+]1[O-])Nc1ccccc1Oc1ccccc1", "IC50": "> 100 µM (inactive)"},
      {"smiles": "O=C1OC(c2ccccc2)=N/C1=C\\C=C\\c1ccco1", "IC50": "> 100 µM (inactive)"},
      {"smiles": "O=C(N/N=C/C(Cl)=C\\c1ccccc1)c1cccs1", "IC50": "> 100 µM (inactive)"},
      {"smiles": "Cc1cc(C)nc(SCC(=O)c2cc3ccccc3oc2=O)n1", "IC50": "> 100 µM (inactive)"},
      {"smiles": "Cc1ccc(CS(=O)(=O)c2ncc(Cl)c(C(=O)Nc3ccc(OC(F)F)cc3)n2)cc1", "IC50": "> 100 µM (inactive)"},
      {"smiles": "Cc1nc2ccc(C(C(F)(F)F)(C(F)(F)F)C(F)(F)F)cc2[nH]1", "IC50": "> 100 µM (inactive)"},
      {"smiles": "Oc1ccccc1C1NN=C(c2ccccc2)S1", "note": "(stereo not given)", "IC50": "> 100 µM (inactive)"},
      {"smiles": "O=C(N/N=C/c1coc2ccc(Cl)cc2c1=O)c1cc(O)cc(O)c1", "IC50": "> 100 µM (inactive)"},
      {"smiles": "COc1cc2c(cc1OC)/C(=C/c1ccc(Cl)cc1)C(=O)OC2", "IC50": "> 100 µM (inactive)"},
      {"smiles": "Oc1ccc(Oc2ccc(Oc3ccc(O)cc3)cc2)cc1", "IC50": "> 100 µM (inactive)"},
      {"smiles": "CCCN(C(=O)c1ccc([N+](=O)[O-])c(C)c1)c1c(N)n(Cc2ccccc2)c(=O)[nH]c1=O", "IC50": "> 100 µM (inactive)"},
      {"smiles": "O=C(Nc1ccc2nc(-c3ccc(Br)o3)[nH]c2c1)c1cccs1", "IC50": "> 100 µM (inactive)"},
      {"smiles": "COc1ccc(C(=O)N/N=C\\c2coc3ccc(Cl)cc3c2=O)cc1", "IC50": "> 100 µM (inactive)"},
      {"smiles": "O=C(Nc1nc2ccccc2s1)C1CCCN1S(=O)(=O)c1ccc(Cl)cc1", "note": "(stereo not given)", "IC50": "> 100 µM (inactive)"},
      {"smiles": "CSc1nnc(C(C)(C)C)c(=O)n1/N=C/c1ccccc1", "IC50": "> 100 µM (inactive)"},
      {"smiles": "CCN(CC)S(=O)(=O)c1ccc(C(=O)OCn2nnc3ccccc3c2=O)cc1", "IC50": "> 100 µM (inactive)"},
      {"smiles": "O=C(Nc1ccc(-c2cn3ccccc3n2)cc1)c1cccs1", "IC50": "> 100 µM (inactive)"},
      {"smiles": "C(=C\\c1ccccc1)/C=N/Nc1nc2ccccc2[nH]1", "IC50": "> 100 µM (inactive)"},
      {"smiles": "CCOC(=O)c1cccnc1SCc1cc(=O)n2ccccc2n1", "IC50": "> 100 µM (inactive)"},
      {"smiles": "CCCCn1c(N)c(N(CCC(C)C)C(=O)c2ccc3c(c2)OCO3)c(=O)[nH]c1=O", "IC50": "> 100 µM (inactive)"},
      {"smiles": "Cc1ccc(Nc2nc(-c3cccnc3)nc3ccccc23)cc1", "IC50": "> 100 µM (inactive)"},
      {"smiles": "O=C(/C=C/c1ccccc1Cl)Nc1ccccc1", "IC50": "> 100 µM (inactive)"},
      {"smiles": "CCOC(=O)c1sc(=NC(=O)c2ccco2)n(C)c1C", "IC50": "> 100 µM (inactive)"},
      {"smiles": "CC(C)Cn1cnc2c(c(-c3ccccc3)c(-c3ccccc3)n2Cc2ccco2)c1=N", "IC50": "> 100 µM (inactive)"},
      {"smiles": "COc1ccc(/C=C/C(=O)Nc2ccc3c(c2)CCC3)cc1OC", "IC50": "> 100 µM (inactive)"},
      {"smiles": "O=C(Nc1ccc(-c2cn3c(n2)SCC3)cc1)c1ccco1", "IC50": "> 100 µM (inactive)"},
      {"smiles": "CC(C)OC(=O)c1cccnc1SCc1cc(=O)n2ccccc2n1", "IC50": "> 100 µM (inactive)"},
      {"smiles": "Cc1cc2cc(CNC(=O)c3ccc(C)c([N+](=O)[O-])c3)ccc2[nH]1", "IC50": "> 100 µM (inactive)"},
      {"smiles": "O=C(N/N=C/c1coc2ccc(Cl)cc2c1=O)c1ccncc1", "IC50": "> 100 µM (inactive)"},
      {"smiles": "N#C/C(=C/c1ccc(N2CCOCC2)o1)c1nc2ccccc2[nH]1", "IC50": "> 100 µM (inactive)"}
    ]}
  ]
}
